Experiments:
Assay in all cases: KINOMEscan
Type in all cases: binding
Settings in all cases: read-out: percent control
ABL2 = ABL2 (Homo sapiens (Human), UniProt P42684)
Description: (§1) Example 2. In Vitro Kinase Selectivity Profiling of the Compounds of the Present Disclosure

ADCK4 = ADCK4 (Homo sapiens (Human), UniProt Q96D53)
Description: as §1

AMPK-alpha2 = AMPK-alpha2 (Homo sapiens (Human), UniProt P54646)
Description: as §1

CAMK1B = CAMK1B (Homo sapiens (Human), UniProt Q6P2M8)
Description: as §1

CAMK1G = CAMK1G (Homo sapiens (Human), UniProt Q96NX5)
Description: as §1

CAMK2A = CAMK2A (Homo sapiens (Human), UniProt Q9UQM7)
Description: as §1

CAMK2B = CAMK2B (Homo sapiens (Human), UniProt Q13554)
Description: as §1

CIT = CIT (Homo sapiens (Human), UniProt O14578)
Description: as §1

CSF1R-autoinhibited = CSF1R-autoinhibited (Homo sapiens (Human), UniProt P07333)
Description: as §1

DRAK2 = DRAK2 (Homo sapiens (Human), UniProt O94768)
Description: as §1

EGFR = EGFR (Homo sapiens (Human), UniProt P00533)
Description: as §1

EGFR(G719C) = EGFR(G719C) (Homo sapiens (Human), UniProt P00533, G719C)
Description: as §1

ERBB3 = ERBB3 (Homo sapiens (Human), UniProt P21860)
Description: as §1

FGFR2 = FGFR2 (Homo sapiens (Human), UniProt P21802)
Sequence of FGFR2 (P21802 22-821): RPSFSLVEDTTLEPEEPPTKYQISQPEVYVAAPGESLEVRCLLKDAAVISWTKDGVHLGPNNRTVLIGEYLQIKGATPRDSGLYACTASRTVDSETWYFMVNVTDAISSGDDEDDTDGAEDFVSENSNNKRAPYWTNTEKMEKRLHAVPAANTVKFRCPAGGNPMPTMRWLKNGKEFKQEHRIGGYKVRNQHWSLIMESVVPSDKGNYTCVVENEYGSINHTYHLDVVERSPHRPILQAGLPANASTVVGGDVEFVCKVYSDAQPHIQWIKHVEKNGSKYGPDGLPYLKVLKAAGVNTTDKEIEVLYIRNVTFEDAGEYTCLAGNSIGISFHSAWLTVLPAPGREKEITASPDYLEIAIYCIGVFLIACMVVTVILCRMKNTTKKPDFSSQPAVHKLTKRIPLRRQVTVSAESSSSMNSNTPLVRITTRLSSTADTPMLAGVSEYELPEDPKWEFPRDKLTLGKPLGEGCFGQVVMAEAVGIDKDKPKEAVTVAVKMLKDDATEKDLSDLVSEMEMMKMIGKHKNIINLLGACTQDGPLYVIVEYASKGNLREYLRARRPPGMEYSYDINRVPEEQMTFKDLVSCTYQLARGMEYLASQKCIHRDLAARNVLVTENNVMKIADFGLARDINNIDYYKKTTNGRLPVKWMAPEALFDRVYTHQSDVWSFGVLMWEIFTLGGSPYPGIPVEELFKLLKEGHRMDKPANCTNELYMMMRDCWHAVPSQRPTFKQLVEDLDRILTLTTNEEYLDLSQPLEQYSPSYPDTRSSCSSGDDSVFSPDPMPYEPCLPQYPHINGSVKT
Description: as §1

FLT3(R834Q) = FLT3(R834Q) (Homo sapiens (Human), UniProt P36888, R834Q)
Description: as §1

GRK1 = GRK1 (Homo sapiens (Human), UniProt Q15835)
Description: as §1

GSK3A = GSK3A (Homo sapiens (Human), UniProt P49840)
Sequence of GSK3A (P49840 whole entry): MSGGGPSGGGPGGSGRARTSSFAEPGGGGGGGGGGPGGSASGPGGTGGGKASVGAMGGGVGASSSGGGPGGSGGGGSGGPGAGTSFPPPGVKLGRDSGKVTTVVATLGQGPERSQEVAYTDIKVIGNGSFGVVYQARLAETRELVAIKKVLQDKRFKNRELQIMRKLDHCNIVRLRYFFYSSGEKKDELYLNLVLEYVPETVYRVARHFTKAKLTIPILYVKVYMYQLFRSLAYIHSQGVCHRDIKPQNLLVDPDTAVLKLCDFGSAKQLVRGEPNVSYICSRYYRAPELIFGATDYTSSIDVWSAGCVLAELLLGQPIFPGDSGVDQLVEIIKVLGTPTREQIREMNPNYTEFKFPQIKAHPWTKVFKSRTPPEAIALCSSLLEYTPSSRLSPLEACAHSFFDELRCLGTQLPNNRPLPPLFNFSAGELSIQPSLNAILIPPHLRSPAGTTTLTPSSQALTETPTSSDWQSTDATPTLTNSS
Description: as §1

IKK-epsilon = IKK-epsilon (Homo sapiens (Human), UniProt Q14164)
Description: as §1

INSR = INSR (Homo sapiens (Human), UniProt P06213)
Description: as §1

LKB1 = LKB1 (Homo sapiens (Human), UniProt Q15831)
Description: as §1

MAP3K1 = MAP3K1 (Homo sapiens (Human), UniProt Q13233)
Sequence of MAP3K1 (Q13233 whole entry): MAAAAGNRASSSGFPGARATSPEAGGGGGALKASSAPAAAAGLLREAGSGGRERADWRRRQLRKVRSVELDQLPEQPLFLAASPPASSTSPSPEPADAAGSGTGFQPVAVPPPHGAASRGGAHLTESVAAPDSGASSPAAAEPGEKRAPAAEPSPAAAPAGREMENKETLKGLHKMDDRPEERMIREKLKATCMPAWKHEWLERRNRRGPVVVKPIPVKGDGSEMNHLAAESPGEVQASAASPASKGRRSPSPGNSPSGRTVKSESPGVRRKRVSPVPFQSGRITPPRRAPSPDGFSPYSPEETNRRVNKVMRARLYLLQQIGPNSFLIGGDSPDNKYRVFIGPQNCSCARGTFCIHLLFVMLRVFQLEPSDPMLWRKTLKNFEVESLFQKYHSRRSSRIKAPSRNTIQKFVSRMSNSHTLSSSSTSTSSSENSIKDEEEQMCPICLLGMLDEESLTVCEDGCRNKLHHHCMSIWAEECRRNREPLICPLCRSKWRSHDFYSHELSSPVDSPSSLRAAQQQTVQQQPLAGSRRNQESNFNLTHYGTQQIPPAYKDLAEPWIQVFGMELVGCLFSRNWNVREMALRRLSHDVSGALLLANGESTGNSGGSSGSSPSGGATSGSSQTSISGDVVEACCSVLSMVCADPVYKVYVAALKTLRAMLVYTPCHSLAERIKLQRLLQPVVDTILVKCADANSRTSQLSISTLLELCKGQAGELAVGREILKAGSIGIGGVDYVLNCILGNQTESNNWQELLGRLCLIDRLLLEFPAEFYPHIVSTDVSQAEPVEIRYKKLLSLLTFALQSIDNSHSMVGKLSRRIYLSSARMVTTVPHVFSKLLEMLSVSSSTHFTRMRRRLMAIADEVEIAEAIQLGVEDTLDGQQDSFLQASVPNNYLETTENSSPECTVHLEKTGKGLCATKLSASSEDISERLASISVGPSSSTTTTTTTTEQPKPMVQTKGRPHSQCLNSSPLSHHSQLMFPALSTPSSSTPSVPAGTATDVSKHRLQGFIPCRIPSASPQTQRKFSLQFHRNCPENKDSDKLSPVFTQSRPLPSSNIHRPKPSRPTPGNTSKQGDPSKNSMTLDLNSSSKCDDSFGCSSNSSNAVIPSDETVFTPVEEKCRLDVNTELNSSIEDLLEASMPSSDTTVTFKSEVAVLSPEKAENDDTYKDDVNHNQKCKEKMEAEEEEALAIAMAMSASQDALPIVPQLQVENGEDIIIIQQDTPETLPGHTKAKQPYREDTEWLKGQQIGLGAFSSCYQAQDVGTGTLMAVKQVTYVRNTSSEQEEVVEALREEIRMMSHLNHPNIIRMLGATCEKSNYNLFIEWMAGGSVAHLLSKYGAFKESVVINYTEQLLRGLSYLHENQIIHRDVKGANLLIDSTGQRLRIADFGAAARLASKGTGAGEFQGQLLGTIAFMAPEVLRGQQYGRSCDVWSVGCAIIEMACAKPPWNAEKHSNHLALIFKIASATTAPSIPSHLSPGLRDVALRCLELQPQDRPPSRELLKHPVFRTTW
Description: as §1

MET = MET (Homo sapiens (Human), UniProt P08581)
Description: as §1

NDR1 = NDR1 (Homo sapiens (Human), UniProt Q15208)
Description: as §1

NEK9 = NEK9 (Homo sapiens (Human), UniProt Q8TD19)
Sequence of NEK9 (Q8TD19 whole entry): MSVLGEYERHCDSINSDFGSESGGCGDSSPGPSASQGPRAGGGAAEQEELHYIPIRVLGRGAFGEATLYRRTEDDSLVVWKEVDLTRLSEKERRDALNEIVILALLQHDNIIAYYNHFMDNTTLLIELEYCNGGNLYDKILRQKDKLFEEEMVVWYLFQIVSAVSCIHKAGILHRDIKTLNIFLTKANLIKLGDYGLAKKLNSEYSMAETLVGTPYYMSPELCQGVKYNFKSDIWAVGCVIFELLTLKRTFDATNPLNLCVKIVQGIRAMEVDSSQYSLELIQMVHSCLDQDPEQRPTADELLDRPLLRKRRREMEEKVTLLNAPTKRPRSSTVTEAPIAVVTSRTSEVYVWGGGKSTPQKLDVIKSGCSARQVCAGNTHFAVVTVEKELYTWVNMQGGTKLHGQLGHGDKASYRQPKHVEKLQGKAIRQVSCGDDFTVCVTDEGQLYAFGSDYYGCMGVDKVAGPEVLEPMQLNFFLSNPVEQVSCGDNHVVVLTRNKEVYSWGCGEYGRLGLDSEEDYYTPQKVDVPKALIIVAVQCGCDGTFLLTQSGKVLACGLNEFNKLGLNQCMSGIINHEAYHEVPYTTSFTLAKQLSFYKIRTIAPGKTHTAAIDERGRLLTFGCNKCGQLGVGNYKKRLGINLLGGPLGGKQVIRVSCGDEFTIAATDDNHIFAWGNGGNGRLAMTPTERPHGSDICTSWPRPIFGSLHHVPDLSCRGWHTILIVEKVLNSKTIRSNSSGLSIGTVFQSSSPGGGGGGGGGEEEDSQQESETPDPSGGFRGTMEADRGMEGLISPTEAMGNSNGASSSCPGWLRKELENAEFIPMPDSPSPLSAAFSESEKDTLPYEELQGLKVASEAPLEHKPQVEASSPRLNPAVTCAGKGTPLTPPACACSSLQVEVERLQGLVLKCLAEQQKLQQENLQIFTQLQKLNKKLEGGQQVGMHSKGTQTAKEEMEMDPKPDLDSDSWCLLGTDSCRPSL
Description: as §1

NIM1 = NIM1 (Homo sapiens (Human), UniProt Q8IY84)
Description: as §1

PFCDPK1(P.falciparum) = PFCDPK1(P.falciparum) (Plasmodium falciparum (isolate 3D7), UniProt P62344)
Description: as §1

PIK3CA(M1043I) = PIK3CA(M1043I) (Homo sapiens (Human), UniProt P42336, M1043I)
Description: as §1

PIK3CD = PIK3CD (Homo sapiens (Human), UniProt O00329)
Sequence of PIK3CD (O00329 whole entry): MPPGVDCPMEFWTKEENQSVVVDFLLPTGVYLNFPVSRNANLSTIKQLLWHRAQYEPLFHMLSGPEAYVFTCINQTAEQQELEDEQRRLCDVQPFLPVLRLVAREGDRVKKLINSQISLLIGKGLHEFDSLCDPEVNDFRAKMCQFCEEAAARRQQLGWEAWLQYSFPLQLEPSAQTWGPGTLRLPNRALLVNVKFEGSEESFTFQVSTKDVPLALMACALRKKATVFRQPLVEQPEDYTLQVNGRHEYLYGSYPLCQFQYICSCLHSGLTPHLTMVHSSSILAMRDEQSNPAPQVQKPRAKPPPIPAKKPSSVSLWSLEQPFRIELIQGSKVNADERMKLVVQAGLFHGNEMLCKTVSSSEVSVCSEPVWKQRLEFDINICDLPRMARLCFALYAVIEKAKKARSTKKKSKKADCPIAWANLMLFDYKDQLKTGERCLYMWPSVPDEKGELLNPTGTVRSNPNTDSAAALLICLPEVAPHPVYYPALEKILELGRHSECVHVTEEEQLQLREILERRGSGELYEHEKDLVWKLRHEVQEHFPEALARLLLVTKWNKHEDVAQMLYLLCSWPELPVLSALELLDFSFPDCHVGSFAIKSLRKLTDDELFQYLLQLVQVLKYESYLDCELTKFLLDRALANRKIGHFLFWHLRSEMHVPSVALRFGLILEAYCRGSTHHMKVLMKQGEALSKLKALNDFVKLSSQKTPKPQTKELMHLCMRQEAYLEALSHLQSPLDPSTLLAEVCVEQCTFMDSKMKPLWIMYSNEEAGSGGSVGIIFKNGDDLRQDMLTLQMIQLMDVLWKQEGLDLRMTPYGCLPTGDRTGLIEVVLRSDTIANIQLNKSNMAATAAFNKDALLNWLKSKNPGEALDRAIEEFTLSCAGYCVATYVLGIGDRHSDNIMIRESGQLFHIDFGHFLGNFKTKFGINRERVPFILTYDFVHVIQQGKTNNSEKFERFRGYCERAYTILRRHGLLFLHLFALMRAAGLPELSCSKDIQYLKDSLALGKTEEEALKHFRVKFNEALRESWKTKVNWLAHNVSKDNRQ
Description: as §1

PLK1 = PLK1 (Homo sapiens (Human), UniProt P53350)
Description: as §1

PLK4 = PLK4 (Homo sapiens (Human), UniProt O00444)
Description: as §1

PRP4 = PRP4 (Homo sapiens (Human), UniProt Q13523)
Description: as §1

ROS1 = ROS1 (Homo sapiens (Human), UniProt P08922)
Description: as §1

[1] = target: RSK1(Kin.Dom.2-C-terminal) (Homo sapiens (Human), UniProt Q15418)
Sequence of RSK1(Kin.Dom.2-C-terminal) (Q15418 418-675 limits assumed): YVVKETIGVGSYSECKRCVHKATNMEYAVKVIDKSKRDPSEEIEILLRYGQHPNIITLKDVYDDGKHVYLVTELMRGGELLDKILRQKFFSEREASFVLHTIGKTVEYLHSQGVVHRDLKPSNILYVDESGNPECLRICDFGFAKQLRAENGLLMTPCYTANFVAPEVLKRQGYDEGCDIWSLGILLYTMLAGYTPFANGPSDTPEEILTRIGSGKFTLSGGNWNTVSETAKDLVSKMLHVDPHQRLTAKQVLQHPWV
Description: as §1

SIK = SIK (Homo sapiens (Human), UniProt P57059)
Description: as §1

SIK2 = SIK2 (Homo sapiens (Human), UniProt Q9H0K1)
Description: as §1

TAK1 = TAK1 (Homo sapiens (Human), UniProt O43318)
Description: as §1

TESK1 = TESK1 (Homo sapiens (Human), UniProt Q15569)
Description: as §1

TSSK1B = TSSK1B (Homo sapiens (Human), UniProt Q9BXA7)
Description: as §1

ULK1 = ULK1 (Homo sapiens (Human), UniProt O75385)
Description: as §1

WNK3 = WNK3 (Homo sapiens (Human), UniProt Q9BYP7)
Description: as §1

SMILES	remaining binding at 1 µM (ABL2) [%]	remaining binding at 1 µM (ADCK4) [%]	remaining binding at 1 µM (AMPK-alpha2) [%]	remaining binding at 1 µM (CAMK1B) [%]	remaining binding at 1 µM (CAMK1G) [%]	remaining binding at 1 µM (CAMK2A) [%]	remaining binding at 1 µM (CAMK2B) [%]	remaining binding at 1 µM (CIT) [%]	remaining binding at 1 µM (CSF1R-autoinhibited) [%]	remaining binding at 1 µM (DRAK2) [%]	remaining binding at 1 µM (EGFR) [%]	remaining binding at 1 µM (EGFR(G719C)) [%]	remaining binding at 1 µM (ERBB3) [%]	remaining binding at 1 µM (FGFR2) [%]	remaining binding at 1 µM (FLT3(R834Q)) [%]	remaining binding at 1 µM (GRK1) [%]	remaining binding at 1 µM (GSK3A) [%]	remaining binding at 1 µM (IKK-epsilon) [%]	remaining binding at 1 µM (INSR) [%]	remaining binding at 1 µM (LKB1) [%]	further results
CCN1CCN(Cc2ccc(Nc3nc4ccc(Oc5ccnc(NC(C)=O)c5)cc4n3C)cc2C(F)(F)F)CC1 [Compound I-2]	32	84	100	50	100	79	92	90	52	100	79	97	62	100	100	82	85	91	20	40	remaining binding at 1 µM (MAP3K1): 77%; remaining binding at 1 µM (MET): 43%; remaining binding at 1 µM (NDR1): 90%; remaining binding at 1 µM (NEK9): 87%; remaining binding at 1 µM (NIM1): 97%; remaining binding at 1 µM (PFCDPK1(P.falciparum)): 77%; remaining binding at 1 µM (PIK3CA(M1043I)): 78%; remaining binding at 1 µM (PIK3CD): 72%; remaining binding at 1 µM (PLK1): 100%; remaining binding at 1 µM (PLK4): 92%; remaining binding at 1 µM (PRP4): 100%; remaining binding at 1 µM (ROS1): 73%; remaining binding at 1 µM [1]: 93%; remaining binding at 1 µM (SIK): 95%; remaining binding at 1 µM (SIK2): 100%; remaining binding at 1 µM (TAK1): 28%; remaining binding at 1 µM (TESK1): 67%; remaining binding at 1 µM (TSSK1B): 100%; remaining binding at 1 µM (ULK1): 100%; remaining binding at 1 µM (WNK3): 100%
CCN1CCN(Cc2ccc(Nc3nc4ccc(Oc5ccnc(NC(C)=O)c5)c(C)c4n3C)cc2C(F)(F)F)CC1 [Compound I-6, N-(4-(2-(4-((4-ethylpiperazin-1-yl)methyl)-3-(trifluoromethyl)phenylamino)-1,7-dimethyl-1H-benzo[d]imidazol-6-yloxy)pyridin-2-yl)acetamide]	5.3	78	92	43	99	100	94	79	68	85	100	94	89	82	57	85	93	92	12	91	remaining binding at 1 µM (MAP3K1): 86%; remaining binding at 1 µM (MET): 40%; remaining binding at 1 µM (NDR1): 100%; remaining binding at 1 µM (NEK9): 68%; remaining binding at 1 µM (NIM1): 93%; remaining binding at 1 µM (PFCDPK1(P.falciparum)): 65%; remaining binding at 1 µM (PIK3CA(M1043I)): 100%; remaining binding at 1 µM (PIK3CD): 88%; remaining binding at 1 µM (PLK1): 71%; remaining binding at 1 µM (PLK4): 100%; remaining binding at 1 µM (PRP4): 100%; remaining binding at 1 µM (ROS1): 43%; remaining binding at 1 µM [1]: 100%; remaining binding at 1 µM (SIK): 98%; remaining binding at 1 µM (SIK2): 97%; remaining binding at 1 µM (TAK1): 10%; remaining binding at 1 µM (TESK1): 62%; remaining binding at 1 µM (TSSK1B): 100%; remaining binding at 1 µM (ULK1): 56%; remaining binding at 1 µM (WNK3): 100%
